For one test, the system named is GABA production. The test can be described thus: Synthesis of GABA in vitro (conversion of glutamate to GABA in culture). The settings on record: cultures grown under anaerobic conditions at ~37° C. for 48 hours; data not shown. The test is classed as cell-based, Lactiplantibacillus plantarum. Here is the method:
The Lactiplantibacillus plantarum Lp815 strain was assessed for its ability to convert glutamate to GABA in vitro. Overnight, stationary phase cultures (16-18 h) of L. plantarum Lp815 were used to inoculate 3 mL of fresh media at an optical density of ~0.05 as measured at 600 nm by a spectrophotometer (OD600). Multiple media types can be used, including rich media (e.g., MRS broth) or minimal media supplemented with the necessary components to support growth. The media can further be supplemented with L (+)-glutamic acid or a salt thereof and/or piperazine-N,N′-bis(2-ethanesulfonic acid) (PIPES). Cultures were grown under anerobic conditions at ~37° C. for 48 hours.

Another test deals with healthy adults. In words: Urine GABA and 5-HIAA levels in human participants after Lp815 supplementation. It is filed as in vivo. The settings on record: week 4, 1×10^9 cfu/day for 4 weeks. Here is the method:
The Lactiplantibacillus plantarum Lp815 strain was assessed for its ability to increase GABA levels in human participants. Eight healthy adults (5 female, 3 male) provided a urine sample at baseline (T=0). Urine was analyzed for GABA and 5-HIAA levels using the Neurotransmitter Basic Panel (available from Life Extension/National Diagnostics, Inc.). 5-HIAA is a metabolite of serotonin and indicative of serotonin levels in a subject. Participants with GABA levels in the high range at baseline ([…] GABA) were excluded from the study. Participants proceeded to take the Lp815 probiotic at 1×10^9 cfu/day for 4 weeks. Participants refrained from beginning any new treatments, using antibiotics, or taking any additional probiotic products.
After 4 weeks of supplementation, a second urine sample was collected and GABA levels measured. […] Additionally, levels of 5-HIAA were increased by approximately 10% at week 4 relative to baseline (FIG. 1B).

Test [1] relates to Participants with self-reported mild to moderate anxiety. In words: Double blind, randomized, placebo-controlled study of GAD-7 generalized anxiety scores. The note with it: 1×10^9 CFU or 5×10^9 CFU daily; weeks 2, 4, and 6; FIG. 2. The test is classed as in vivo, human. Here is the method:
A double blind, randomized, placebo-controlled study was conducted to assess the impact of Lactiplantibacillus plantarum Lp815 on generalized anxiety scores. Participants with self-reported mild to moderate anxiety as measured by the GAD-7 questionnaire were enrolled in a six week trial. Participants with severe anxiety were excluded.
The GAD-7 questionnaire is a self-reported questionnaire that assesses anxiety levels based on 7 questions as measured over the last two weeks: 1) feeling nervous, anxious, or on edge, 2) not being able to stop or control worrying, 3) worrying too much about different things, 4) trouble relaxing, 5) being so restless that it is hard to sit still, 6) becoming easily annoyed or irritable, and 7) feeling afraid as if something awful might happen. For each question, a score of 0 (not at all), 1 (several days), 2 (more than half the days), or 3 (nearly every day) is assigned. The total score is a sum across the seven questions. A total score of 0-4 indicates minimal anxiety, 5-9 indicates mild anxiety, 10-14 indicates moderate anxiety, and 15-21 indicates severe anxiety.
Participants were divided into either placebo, 1×10^9 CFU daily of Lp815 or 5×10^9 CFU daily of Lp815. The GAD-7 questionnaire was administered at baseline, 2 weeks, 4 weeks and 6 weeks following supplementation.

The values below come from patent US20260263543A1, “COMPOSITIONS AND METHODS TO INCREASE PRODUCTION OF GAMMA-AMINOBUTYRIC ACID” (Verb Biotics, priority 2023, published 2026).

Lactiplantibacillus plantarum Lp815: the GABA production entry in the test with GABA production is “increase in GABA production”. For the same substance, the “GABA levels increase relative to baseline” value with healthy adults (FIG. 1A) was “approximately 20%”. Further, the “levels of 5-HIAA increase relative to baseline” value in the test with healthy adults (FIG. 1B) was “approximately 10%”. Moreover, the “decrease in GAD-7 scores relative to baseline” value in test [1] is reported as 10-15 points.
